Among the data in ChEMBL document CHEMBL1135259, “Azapeptides as inhibitors of the hepatitis C virus NS3 serine protease” (Bioorg Med Chem Lett, 2002) are k cat values, retold here.

NS3 (Hepatitis C virus), sequence (A3EZJ3 as listed by the source): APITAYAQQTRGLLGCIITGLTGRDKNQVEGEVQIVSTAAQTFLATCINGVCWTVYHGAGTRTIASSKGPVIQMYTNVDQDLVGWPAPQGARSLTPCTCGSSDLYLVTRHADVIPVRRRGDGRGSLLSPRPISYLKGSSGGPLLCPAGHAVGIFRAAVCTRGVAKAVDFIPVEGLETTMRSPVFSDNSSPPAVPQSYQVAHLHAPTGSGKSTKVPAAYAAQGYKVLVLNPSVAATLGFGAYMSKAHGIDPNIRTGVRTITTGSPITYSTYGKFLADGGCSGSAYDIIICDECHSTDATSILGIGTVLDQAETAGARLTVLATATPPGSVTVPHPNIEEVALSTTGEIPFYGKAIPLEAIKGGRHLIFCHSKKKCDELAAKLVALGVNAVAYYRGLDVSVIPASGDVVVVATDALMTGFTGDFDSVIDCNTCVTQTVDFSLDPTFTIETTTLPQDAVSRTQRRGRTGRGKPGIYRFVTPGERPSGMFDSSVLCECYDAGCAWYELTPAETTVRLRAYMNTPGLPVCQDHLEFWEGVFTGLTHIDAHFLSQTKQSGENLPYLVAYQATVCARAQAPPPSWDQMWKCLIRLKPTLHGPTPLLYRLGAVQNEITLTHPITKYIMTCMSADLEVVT

This test addresses NS3 (Hepatitis C virus) (UniProt A3EZJ3). In words: Binding affinity against Hepatitis C virus NS3 protease was calculated as Kcat. To be noted: Hepacivirus hominis.
Turning to `CCCC(NC(=O)[C@H]1CCCN1C(=O)[C@@H](NC(=O)[C@@H](NC(=O)[C@H](CC(=O)O)NC(=O)[C@H](CCC(=O)O)NC(=O)[C@@H](NC(=O)[C@H](CC(=O)O)NC(C)=O)[C@@H](C)O)C(C)C)C(C)C)C(=O)Oc1ccc([N+](=O)[O-])cc1` (stereo not given in full), the k cat was 1.67 s⁻¹. Then `CCCN(NC(=O)[C@H]1CCCN1C(=O)[C@@H](NC(=O)[C@@H](NC(=O)[C@H](CC(=O)O)NC(=O)[C@H](CCC(=O)O)NC(C)=O)C(C)C)C(C)C)C(=O)Oc1ccc([N+](=O)[O-])cc1`, with 0.00833 s⁻¹; and `CCCN(NC(=O)[C@H]1CCCN1C(=O)[C@@H](NC(=O)[C@@H](NC(=O)[C@H](CC(=O)O)NC(C)=O)C(C)C)C(C)C)C(=O)Oc1ccc([N+](=O)[O-])cc1`, with 0.00833 s⁻¹. For the compound `CCCN(NC(=O)[C@H]1CCCN1C(=O)[C@@H](NC(=O)[C@@H](NC(=O)[C@H](CC(=O)O)NC(=O)[C@H](CCC(=O)O)NC(=O)[C@@H](NC(C)=O)[C@@H](C)O)C(C)C)C(C)C)C(=O)Oc1ccc([N+](=O)[O-])cc1`, the k cat was 0.00833 s⁻¹. Then `CCCN(NC(=O)[C@H]1CCCN1C(=O)[C@@H](NC(=O)[C@@H](NC(C)=O)C(C)C)C(C)C)C(=O)Oc1ccc([N+](=O)[O-])cc1`, with 0.00667 s⁻¹.
